The values that follow come from ChEMBL document CHEMBL3585298, “Combination of 4-anilinoquinazoline and rhodanine as novel epidermal growth factor receptor tyrosine kinase inhibitors” (Bioorg Med Chem, 2015).

For test [1], the system named is HepG2. Briefly: Antiproliferative activity against human HepG2 cells assessed as cell growth by MTT assay. It counts as functional, cell-based. In general terms: Formazan colour is commonly taken as a measure of viable cells.
Test [2] has as its system A549. Briefly: Antiproliferative activity against human A549 cells assessed as cell growth by MTT assay. It counts as functional, cell-based.
Test [3] addresses Epidermal growth factor receptor (Homo sapiens, UniProt P00533). Briefly: Inhibition of recombinant EGFR (unknown origin) assessed as inhibition of autophosphorylation after 1 hr by DELFIA/Time-resolved fluorometry.

pIC50: −log10 of the molar value.

Sequence of Epidermal growth factor receptor (P00533 whole entry): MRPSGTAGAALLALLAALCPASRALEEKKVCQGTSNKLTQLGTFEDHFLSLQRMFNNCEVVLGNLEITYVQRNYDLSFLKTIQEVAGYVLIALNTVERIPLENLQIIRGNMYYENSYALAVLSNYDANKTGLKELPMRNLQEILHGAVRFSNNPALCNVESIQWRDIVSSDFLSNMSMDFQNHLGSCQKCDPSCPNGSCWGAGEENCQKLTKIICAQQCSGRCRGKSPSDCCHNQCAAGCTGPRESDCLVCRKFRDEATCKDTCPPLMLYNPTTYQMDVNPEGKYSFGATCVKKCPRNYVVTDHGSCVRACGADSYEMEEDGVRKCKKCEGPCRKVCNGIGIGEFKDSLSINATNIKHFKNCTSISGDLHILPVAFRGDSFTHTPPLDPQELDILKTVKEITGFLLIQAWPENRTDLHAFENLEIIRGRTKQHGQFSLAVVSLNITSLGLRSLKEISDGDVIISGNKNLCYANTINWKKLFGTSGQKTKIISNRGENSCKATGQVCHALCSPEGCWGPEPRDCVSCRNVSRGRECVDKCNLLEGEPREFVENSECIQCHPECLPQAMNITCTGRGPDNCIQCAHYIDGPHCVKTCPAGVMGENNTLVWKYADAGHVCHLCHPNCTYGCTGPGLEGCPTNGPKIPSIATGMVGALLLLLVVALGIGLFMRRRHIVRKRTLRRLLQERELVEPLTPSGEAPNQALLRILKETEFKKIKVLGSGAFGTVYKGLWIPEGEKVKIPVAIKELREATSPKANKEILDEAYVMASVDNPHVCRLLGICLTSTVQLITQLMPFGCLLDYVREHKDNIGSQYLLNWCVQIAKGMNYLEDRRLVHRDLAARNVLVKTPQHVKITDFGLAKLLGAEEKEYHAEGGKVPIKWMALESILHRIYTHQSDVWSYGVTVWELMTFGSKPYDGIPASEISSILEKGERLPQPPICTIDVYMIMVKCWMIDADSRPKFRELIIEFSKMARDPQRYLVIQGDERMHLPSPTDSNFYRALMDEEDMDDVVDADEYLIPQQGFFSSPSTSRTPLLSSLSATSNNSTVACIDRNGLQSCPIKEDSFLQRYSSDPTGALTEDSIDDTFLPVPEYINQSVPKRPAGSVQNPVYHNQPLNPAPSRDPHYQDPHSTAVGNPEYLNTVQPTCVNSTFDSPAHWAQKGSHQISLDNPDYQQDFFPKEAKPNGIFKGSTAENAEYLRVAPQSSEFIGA

Consider `O=C1N=C(N2CCC[C@H]2C(=O)Nc2ccc3ncnc(Nc4cccc(Cl)c4)c3c2)S/C1=C/c1ccccc1F`, for which the pIC50 in test [1] was 4.74; in test [2], 4.46.

For `O=C1N=C(N2CCC[C@H]2C(=O)Nc2ccc3ncnc(Nc4cccc(Cl)c4)c3c2)S/C1=C/c1cccs1`, the pIC50 is 5.09 in test [3], 5.39 in test [1] and 5.21 in test [2].

Take `O=C1N=C(N2CCC[C@H]2C(=O)Nc2ccc3ncnc(Nc4cccc(Cl)c4)c3c2)S/C1=C/c1ccc(Br)s1`: the pIC50 is 4.50 in test [3], under 4.30 in test [1] and under 4.30 in test [2].

Turning to `Cc1cccc(/C=C2/SC(N3CCC[C@H]3C(=O)Nc3ccc4ncnc(Nc5cccc(Cl)c5)c4c3)=NC2=O)n1`, the pIC50 was 5.19 in test [3], 5.35 in test [1] and 5.07 in test [2].

Consider `O=C1N=C(N2CCC[C@H]2C(=O)Nc2ccc3ncnc(Nc4cccc(Cl)c4)c3c2)S/C1=C/c1cccc(Br)n1`, for which the pIC50 was 5.51 in test [3], 5.57 in test [1] and 5.51 in test [2].

As for `O=C1N=C(N2CCC[C@H]2C(=O)Nc2ccc3ncnc(Nc4cccc(Cl)c4)c3c2)S/C1=C/c1cccnc1Cl`, the values for the pIC50 in test [3], in test [1] and in test [2] were 5.13, 5.19 and 4.97, respectively.

In the case of `O=C1N=C(N2CCC[C@H]2C(=O)Nc2ccc3ncnc(Nc4cccc(Cl)c4)c3c2)S/C1=C/c1cccnc1`, the pIC50 in test [3] was 5.01; in test [1] it was 5.07; in test [2] it was 4.98.

`O=C1N=C(N2CCC[C@H]2C(=O)Nc2ccc3ncnc(Nc4cccc(Cl)c4)c3c2)S/C1=C/c1ccc2ccccc2n1`: the pIC50 in test [1] was 4.64; in test [2], under 4.30.

In the case of `O=C1N=C(N2CCC[C@H]2C(=O)Nc2ccc3ncnc(Nc4cccc(Cl)c4)c3c2)S/C1=C/c1ccccc1Cl`, the pIC50 in test [1] is 4.55; in test [2] it was under 4.30.

`O=C1N=C(N2CCC[C@H]2C(=O)Nc2ccc3ncnc(Nc4cccc(Cl)c4)c3c2)S/C1=C/c1cccc(Cl)c1`: the pIC50 is 4.56 in test [1] and under 4.30 in test [2].

As for `O=C1N=C(N2CCC[C@H]2C(=O)Nc2ccc3ncnc(Nc4cccc(Cl)c4)c3c2)S/C1=C/c1ccccc1Br`, the negative-log IC50 (pIC50) in test [1] was 4.61; in test [2], under 4.30.

Regarding `O=C1N=C(N2CCC[C@H]2C(=O)Nc2ccc3ncnc(Nc4cccc(Cl)c4)c3c2)S/C1=C/c1cccc(Br)c1`, the negative logarithm of the IC50 (pIC50) in test [1] was 4.67; in test [2], under 4.30.

As for `O=C1N=C(N2CCC[C@H]2C(=O)Nc2ccc3ncnc(Nc4cccc(Cl)c4)c3c2)S/C1=C/c1ccc(Cl)cc1`, the pIC50 in test [3] was 5.12; in test [1] it was 4.98; in test [2], 4.73.

With `COc1ccccc1/C=C1/SC(N2CCC[C@H]2C(=O)Nc2ccc3ncnc(Nc4cccc(Cl)c4)c3c2)=NC1=O`, the pIC50 in test [1] was 4.66; in test [2] it was under 4.30.

As to `O=C1N=C(N2CCC[C@H]2C(=O)Nc2ccc3ncnc(Nc4cccc(Cl)c4)c3c2)S/C1=C/c1ccccc1[N+](=O)[O-]`, the pIC50 in test [1] is 4.49; in test [2], under 4.30.

As to `COc1ccc(/C=C2/SC(N3CCC[C@H]3C(=O)Nc3ccc4ncnc(Nc5cccc(Cl)c5)c4c3)=NC2=O)cc1`, the values for the pIC50 in test [1] and in test [2] were 4.72 and 4.50, respectively.

For the compound `O=C1N=C(N2CCC[C@H]2C(=O)Nc2ccc3ncnc(Nc4cccc(Cl)c4)c3c2)S/C1=C/c1ccc(-c2ccccc2)cc1`, the pIC50 was 4.88 in test [3], 4.81 in test [1] and 4.62 in test [2].

By pIC50 is commonly meant the negative decadic logarithm of the IC50, by convention in mol/L.
